Measured values as given in patent US20150299125A1, “PRODRUG BIPYRIDYLAMINOPYRIDINES AS SYK INHIBITORS” (MERCK SHARP & DOHME CORP., priority 2012, published 2015).
≈ marks a conversion by molar mass, not a printed value. Where two headings read alike, the source gives them in different places.

What was measured:
[1] = molecular target: T1, recombinant human GST-Syk (Homo sapiens, UniProt P43405); assay: Homogeneous Time-Resolved Fluorescence (HTRF) assay for the recombinant human Syk enzyme; type: biochemical; conditions: recombinant human GST-Syk 5 pM, ATP 25 μM, read-out: IC50
T1 construct: purchased Carna Biosciences 08-176
How it was run: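 Recombinant GST-hSyk phosphorylates a biotinylated peptide for 45 min at room temperature. Quenched with EDTA buffer containing 2 nM Eu-anti-phosphotyrosine antibody and 70 nM SA-APC; HTRF read after 30 min.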

[2] = Solubility in biorelevant fasted state simulated intestinal fluid (FaSSIF); type: physicochemical; conditions: kinetic from dmso stock
Description: Solubility in Biorelevant Fasted State Simulated Intestinal Fluid (FaSSIF):
A 10 mM DMSO stock solution of compound to be tested is used. A 100 μM standard solution is generated by diluting 2.5 μL of the 10 mM stock solution with 247.5 μL of diluent (10% DMSO/10% MeCN/80% MeOH, v/v/v). A solubility solution is generated by diluting 5 μL of the 10 mM stock solution with 245 μL of FaSSIF (maximum solubility approximately 200 μM). […] The equilibrated solubility solution is filtered by centrifugation (3 minutes at 4000 rpm) using a 0.45 µm filter with a polypropylene membrane. The standard solution and the filtered equilibrated solubility solution are analyzed by HPLC/DAD. The solubility value is calculated by the following equation:
Solubility=(Peak area of sample/Peak area of standard)(Standard concentration)

| Compound | IC50 [1] | solubility ([2]; 25 °C, fassif, Solubility) | solubility ([2]; FaSSIF, equilibrated overnight at 25° C., maximum solubility approximately 200 μM, read-out: Solubility) |
| --- | --- | --- | --- |
| COCCN(C)C(=O)OC(C)OC(=O)[C@H]1CC[C@H]([C@@](C)(O)c2ccc(-c3cc(C)cc(Nc4cc(C(F)F)ccn4)n3)cn2)CC1 (single isomer, unassigned) [Example 4-1a] | 24.7 nM | 40 µM (≈ 25.7 µg/mL) | – |
| CC[N+](CC)(CCCC(C)O)COC(=O)[C@H]1CC[C@H]([C@@](C)(O)c2ccc(-c3cc(C)cc(Nc4cc(C(F)F)ccn4)n3)cn2)CC1 (stereo partly drawn) [Example 5-7, N-{[({trans-4-[(1R)-1-(6-{[4-(difluoromethyl)pyridin-2-yl]amino}-4-methyl-2,3′-bipyridin-6′-yl)-1-hydroxyethyl]cyclohexyl}carbonyl)oxy]methyl}-N,N-diethyl-4-hydroxypentan-1-aminium] | 1.3 nM | 200 µM | – |
| Cc1cc(Nc2cc(C(F)F)ccn2)nc(-c2ccc([C@](C)(O)[C@H]3CC[C@H](C(=O)OC[N+](C)(C)C(C)C)CC3)nc2)c1 [Example 5-2, N-{[({trans-4-[(1R)-1-(6-{[4-(difluoromethyl)pyridin-2-yl]amino}-4-methyl-2,3′-bipyridin-6′-yl)-1-hydroxyethyl]cyclohexyl}carbonyl)oxy]methyl}-N,N-dimethylpropan-2-aminium] | 0.8 nM | 97 µM | – |
| CSCCCOC(=O)[C@H]1CC[C@H]([C@@](C)(O)c2ccc(-c3cc(C)cc(Nc4cc(C(F)F)ccn4)n3)cn2)CC1 [Example 1-9, 3-(methylsulfanyl)propyl trans-4-[(1R)-1-(6-{[4-(difluoromethyl)pyridin-2-yl]amino}-4-methyl-2,3′-bipyridin-6′-yl)-1-hydroxyethyl] cyclohexanecarboxylate] | 27.7 nM | 43 µM (≈ 24.5 µg/mL) | – |
| Cc1cc(Nc2cc(C(F)F)ccn2)nc(-c2ccc([C@](C)(O)[C@H]3CC[C@H](C(=O)OCOC(=O)O[C@H]4CC[C@H](N)CC4)CC3)nc2)c1 [Example 2-11, ({[(trans-4-aminocyclohexyl)oxy]carbonyl}oxy) methyl trans-4-[(1R)-1-(6-{[4-(difluoromethyl)pyridin-2-yl]amino}-4-methyl-2,3′-bipyridin-6′-yl)-1-hydroxyethyl]cyclo hexanecarboxylate] | 5.2 nM | 149 µM (≈ 97.4 µg/mL) | – |
| Cc1cc(Nc2cc(C(F)F)ccn2)nc(-c2ccc([C@](C)(O)[C@H]3CC[C@H](C(=O)OCOC(=O)OCCCCCCN)CC3)nc2)c1 [Example 2-1, ({[(6-Aminohexyl)oxy]carbonyl}oxy)methyl trans-4-[(1R)-1-(6-{[4-(difluoromethyl)pyridin-2-yl]amino}-4-methyl-2,3′-bipyridin-6′-yl)-1-hydroxyethyl]cyclohexanecarboxylate] | 19.9 nM | 167 µM (≈ 110 µg/mL) | – |
| CC[N+](CC)(CC)COC(=O)[C@H]1CC[C@H]([C@@](C)(O)c2ccc(-c3cc(C)cc(Nc4cc(C(F)F)ccn4)n3)cn2)CC1 [Example 5-10, N-{[({trans-4-[(1R)-1-(6-{[4-(difluoromethyl)pyridin-2-yl]amino}-4-methyl-2,3′-bipyridin-6′-yl)-1-hydroxyethyl]cyclohexyl}carbonyl)oxy]methyl}-N,N-diethylethanaminium] | 1.4 nM | 138 µM | – |
| Cc1cc(Nc2cc(C(F)F)ccn2)nc(-c2ccc([C@](C)(O)[C@H]3CC[C@H](C(=O)OCOC(=O)CCO)CC3)nc2)c1 [Example 3-9, [(3-hydroxypropanoyl)oxy] methyl trans-4-[(1R)-1-(6-{[4-(difluoromethyl)pyridin-2-yl]amino}-4-methyl-2,3′-bipyridin-6′-yl)-1-hydroxyethyl]cyclohexane carboxylate] | 4.8 nM | 160 µM (≈ 93.5 µg/mL) | – |
| Cc1cc(Nc2cc(C(F)F)ccn2)nc(-c2ccc([C@](C)(O)[C@H]3CC[C@H](C(=O)OC[N+]4(C)CCC(CO)CC4)CC3)nc2)c1 (stereo partly drawn) [Example 5-29, 1-{[({trans-4-[(1R)-1-(6-{[4-(difluoromethyl)pyridin-2-yl]amino}-4-methyl-2,3′-bipyridin-6′-yl)-1-hydroxyethyl]cyclohexyl}carbonyl)oxy]methyl}-4-(hydroxymethyl)-1-methylpiperidinium] | < 0.5 nM | 176 µM | – |
| Cc1cc(Nc2cc(C(F)F)ccn2)nc(-c2ccc([C@](C)(O)[C@H]3CC[C@H](C(=O)OC[N+]4(C)CCC(O)CC4)CC3)nc2)c1 (stereo partly drawn) [Example 5-27, 1-{[({trans-4-[(1R)-1-(6-{[4-(difluoromethyl)pyridin-2-yl]amino}-4-methyl-2,3′-bipyridin-6′-yl)-1-hydroxyethyl]cyclohexyl}carbonyl)oxy]methyl}-4-hydroxy-1-methylpiperidinium] | 1.5 nM | 164 µM | – |
| Cc1cc(Nc2cc(C(F)F)ccn2)nc(-c2ccc([C@](C)(O)[C@H]3CC[C@H](C(=O)O[C@H]4CC[C@@H](N)CC4)CC3)nc2)c1 [Example 1-2, cis-4-Aminocyclohexyl trans-4-[(1R)-1-(6-{[4-(difluoromethyl)pyridin-2-yl]amino}-4-methyl-2,3′-bipyridin-6′-yl)-1-hydroxyethyl]cyclohexanecarboxylate] | 4.2 nM | 114 µM (≈ 66.1 µg/mL) | – |
| Cc1cc(Nc2cc(C(F)F)ccn2)nc(-c2ccc([C@](C)(O)[C@H]3CC[C@H](C(=O)OC[C@H](O)CO)CC3)nc2)c1 [Example 1-16, (2R)-2,3-dihydroxypropyl trans-4-[(1R)-1-(6-{[4-(difluoromethyl)pyridin-2-yl]amino}-4-methyl-2,3′-bipyridin-6′-yl)-1-hydroxyethyl] cyclohexanecarboxylate] | 2.3 nM | 165 µM (≈ 91.8 µg/mL) | – |
| Cc1cc(Nc2cc(C(F)F)ccn2)nc(-c2ccc([C@](C)(O)[C@H]3CC[C@H](C(=O)OCC[S@+](C)[O-])CC3)nc2)c1 (single isomer, unassigned) [Example 7-1b] | 3.3 nM | 52 µM (≈ 29.8 µg/mL) | – |
| Cc1cc(Nc2cc(C(F)F)ccn2)nc(-c2ccc([C@](C)(O)[C@H]3CC[C@H](C(=O)OCOC(=O)OCC[S+](C)[O-])CC3)nc2)c1 (single isomer, unassigned) [Example 7-6] | 1 nM | 156 µM (≈ 101 µg/mL) | – |
| Cc1cc(Nc2cc(C(F)F)ccn2)nc(-c2ccc([C@](C)(O)[C@H]3CC[C@H](C(=O)OCCC(C)(C)O)CC3)nc2)c1 [Example 1-12, 3-hydroxy-3-methylbutyl trans-4-[(1R)-1-(6-{[4-(difluoromethyl)pyridin-2-yl]amino}-4-methyl-2,3′-bipyridin-6′-yl)-1-hydroxyethyl] cyclohexanecarboxylate] | 10 nM | – | 76 µM (≈ 43.2 µg/mL) |
| Cc1cc(Nc2cc(C(F)F)ccn2)nc(-c2ccc([C@](C)(O)[C@H]3CC[C@H](C(=O)OC[N+](C)(C)C4CCCCC4)CC3)nc2)c1 [Example 5-11, N-{[({trans-4-[(1R)-1-(6-{[4-(difluoromethyl)pyridin-2-yl]amino}-4-methyl-2,3′-bipyridin-6′-yl)-1-hydroxyethyl]cyclohexyl}carbonyl)oxy]methyl}-N,N-dimethylcyclohexanaminium] | 0.9 nM | 200 µM | – |
| CN[C@H]1CC[C@H](OC(=O)[C@H]2CC[C@H]([C@@](C)(O)c3ccc(-c4cc(C)cc(Nc5cc(C(F)F)ccn5)n4)cn3)CC2)CC1 [Example 1-24, trans-4-(methylamino)cyclohexyl trans-4-[(1R)-1-(6-{[4-(difluoromethyl)pyridin-2-yl]amino}-4-methyl-2,3′-bipyridin-6′-yl)-1-hydroxyethyl] cyclohexanecarboxylate] | 3.5 nM | 141 µM (≈ 83.7 µg/mL) | – |
| Cc1cc(Nc2cc(C(F)F)ccn2)nc(-c2ccc([C@](C)(O)[C@H]3CC[C@H](C(=O)OCC4CCOCC4)CC3)nc2)c1 [Example 1-20, tetrahydro-2H-pyran-4-ylmethyl trans-4-[(1R)-1-(6-{[4-(difluoromethyl)pyridin-2-yl]amino}-4-methyl-2,3′-bipyridin-6′-yl)-1-hydroxyethyl] cyclohexanecarboxylate] | 34.1 nM | 47 µM (≈ 27.3 µg/mL) | – |
| Cc1cc(Nc2cc(C(F)F)ccn2)nc(-c2ccc([C@](C)(O)[C@H]3CC[C@H](C(=O)OCCC[S+](C)[O-])CC3)nc2)c1 (stereo partly drawn) [Example 7-4, 3-(methylsulfinyl)propyl trans-4-[(1R)-1-(6-{[4-(difluoromethyl)pyridin-2-yl]amino}-4-methyl-2,3′-bipyridin-6′-yl)-1-hydroxyethyl]cyclohexane carboxylate] | 4.3 nM | 141 µM (≈ 82.7 µg/mL) | – |
| CC[N+](COC(=O)[C@H]1CC[C@H]([C@@](C)(O)c2ccc(-c3cc(C)cc(Nc4cc(C(F)F)ccn4)n3)cn2)CC1)(C(C)C)C(C)C [Example 5-3, N-{[({trans-4-[(1R)-1-(6-{[4-(difluoromethyl)pyridin-2-yl]amino}-4-methyl-2,3′-bipyridin-6′-yl)-1-hydroxyethyl]cyclohexyl}carbonyl)oxy]methyl}-N-ethyl-N-(1-methylethyl)propan-2-aminium] | 1.9 nM | 175 µM | – |
| Cc1cc(Nc2cc(C(F)F)ccn2)nc(-c2ccc([C@](C)(O)[C@H]3CC[C@H](C(=O)OC[C@H]4COC(C)(C)O4)CC3)nc2)c1 [Example 1-14, [(4R)-2,2-dimethyl-1,3-dioxolan-4-yl]methyl trans-4-[(1R)-1-(6-{[4-(difluoromethyl)pyridin-2-yl]amino}-4-methyl-2,3′-bipyridin-6′-yl)-1-hydroxyethyl] cyclohexanecarboxylate] | 27.6 nM | 109 µM (≈ 65 µg/mL) | – |
